These results are taken from patent US9464084B2, “P2X7 modulators” (Janssen Pharmaceutica NV, priority 2013, dated 2016).

Assay [1] concerns the target T1, P2X7 (Homo sapiens (Human), UniProt Q99572). Put plainly: Ca2+ flux (FLIPR) in 1321N1 cells expressing recombinant human P2X7 channel.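 Note: Calcium-4 dye-loaded cells exposed to compound for 30 min before agonist addition, fluorescence change read 180 s after agonist.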 To be noted: 250 μM BzATP. In kind it is cell-based. For orientation: Calcium flux is commonly read through the fluorescence of an indicator in the cells.
The target of assay [2] is T1, P2X7. Put plainly: Radioligand binding, tritiated A-804598, human P2X7-1321N1 cell membranes.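 Note: ki obtained from the binding IC50 after correction for tracer concentration and tracer affinity.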 To be noted: 1 hour at 4° C.
Procedure: On the day of the experiment, cell membrane preparations were made according to standard published methods. […] The assay was terminated by filtration (GF/B filters pre-soaked with 0.3% PEI) and washed with washing buffer (Tris-HCl 50 mM). The IC50 generated in the binding assay was corrected for tracer concentration and affinity of the tracer to derive at the affinity (Ki) of the test compounds.
Assay [3] concerns the target T1, P2X7. The assay is described as follows: P2X7 antagonism in human PBMCs (LPS + Bz-ATP induced IL-1β release, ELISA).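 For all read-outs here: PBMCs from donor human blood, with a further 1.5 h incubation of the cells in the assay.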 In kind it is cell-based. To be noted: LPS 30 ng/ml, Bz-ATP 0.5 mM; for PBMC 10 μM (% control): compound 10 μM; for PBMC 1 μM (% control): compound 1 μM.
For the next assay, the target named is rat P2X7 (Rattus norvegicus (Rat), UniProt Q64663). Put plainly: Ca2+ flux (FLIPR) in 1321N1 cells expressing recombinant rat P2X7 channel.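 Note: Calcium-4 dye fluorescence change read 180 s after agonist addition, following 30 min cell preincubation with test compound.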 Type of assay: cell-based. To be noted: 250 μM BzATP.
Sequence of rat P2X7 (Q64663 whole entry): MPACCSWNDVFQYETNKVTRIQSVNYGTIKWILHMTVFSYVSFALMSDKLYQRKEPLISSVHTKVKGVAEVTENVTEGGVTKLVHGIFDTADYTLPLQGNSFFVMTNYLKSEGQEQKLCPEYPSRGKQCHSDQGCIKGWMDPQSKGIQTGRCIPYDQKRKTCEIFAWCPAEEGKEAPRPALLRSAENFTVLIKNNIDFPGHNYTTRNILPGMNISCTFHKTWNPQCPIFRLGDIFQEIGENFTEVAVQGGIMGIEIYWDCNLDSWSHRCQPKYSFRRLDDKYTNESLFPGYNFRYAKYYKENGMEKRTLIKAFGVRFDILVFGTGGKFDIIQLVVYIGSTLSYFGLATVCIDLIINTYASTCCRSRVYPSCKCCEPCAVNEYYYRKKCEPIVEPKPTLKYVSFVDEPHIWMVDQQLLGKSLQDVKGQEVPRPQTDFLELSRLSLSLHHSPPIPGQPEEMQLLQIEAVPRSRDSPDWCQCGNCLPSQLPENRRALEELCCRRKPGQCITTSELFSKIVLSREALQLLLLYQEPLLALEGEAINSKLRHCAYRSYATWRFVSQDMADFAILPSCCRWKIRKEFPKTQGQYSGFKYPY

T1 sequence (Q99572 whole entry): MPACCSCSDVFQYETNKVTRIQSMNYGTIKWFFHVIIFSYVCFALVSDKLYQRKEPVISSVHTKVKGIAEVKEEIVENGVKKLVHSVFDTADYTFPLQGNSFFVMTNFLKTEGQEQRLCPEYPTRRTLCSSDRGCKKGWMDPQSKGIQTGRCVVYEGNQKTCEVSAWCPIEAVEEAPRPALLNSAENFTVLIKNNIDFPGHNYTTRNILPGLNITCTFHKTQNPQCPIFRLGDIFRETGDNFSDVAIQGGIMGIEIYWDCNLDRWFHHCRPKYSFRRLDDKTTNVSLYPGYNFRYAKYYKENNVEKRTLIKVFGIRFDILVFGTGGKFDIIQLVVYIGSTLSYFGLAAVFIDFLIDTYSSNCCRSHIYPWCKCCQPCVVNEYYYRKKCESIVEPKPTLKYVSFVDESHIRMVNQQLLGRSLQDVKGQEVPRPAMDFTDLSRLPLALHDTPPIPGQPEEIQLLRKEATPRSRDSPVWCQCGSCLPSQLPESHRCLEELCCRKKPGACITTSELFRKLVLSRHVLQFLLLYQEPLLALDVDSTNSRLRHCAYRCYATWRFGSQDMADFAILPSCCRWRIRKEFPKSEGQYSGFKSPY

The IC50 is the point on the concentration scale where inhibition reaches its midpoint. The Ki is the equilibrium dissociation constant of an inhibitor or competing ligand from its target. For `C[C@H]1c2nnn(-c3cccc(F)n3)c2CCN1C(=O)c1cccc(C(F)(F)F)c1Cl` (single isomer, unassigned) [Example 147, (S*)-(2-Chloro-3-(trifluoromethyl)phenyl)(1-(6-fluoropyridin-2-yl)-4-methyl-6,7-dihydro-1H-[1,2,3]triazolo[4,5-c]pyridin-5(4H)-yl)methanone], the values for the IC50 at P2X7 [1] and at rat P2X7 were 0.0113 µM and 0.507 µM, respectively. Also, at P2X7 [2], the Ki came to 0.0398 µM. For the same molecule, the “PBMC 10 μM (% control)” value on P2X7 [3] is on record as −8.9 % control.
For `C[C@@H]1c2nnn(-c3ncccn3)c2CCN1C(=O)c1cccc(C(F)(F)F)c1F` (single isomer, unassigned) [Example 271, (R*)-(2-fluoro-3-(trifluoromethyl)phenyl)(4-methyl-1-(pyrimidin-2-yl)-6,7-dihydro-1H-[1,2,3]triazolo[4,5-c]pyridin-5(4H)-yl)methanone], the values for the IC50 at P2X7 [1] and on rat P2X7 were 0.0033 µM and 0.0111 µM, respectively. This molecule registered a Ki at P2X7 [2] of 0.0059 µM. Besides, the “PBMC 10 μM (% control)” value at P2X7 [3] is reported as −3.7 % control.
As to `CC1Cc2c(-c3ccnn3C)nn(C)c2CN1C(=O)c1cccc(C(F)(F)F)c1Cl` (stereo not drawn) [Example 266, (2-chloro-3-(trifluoromethyl)phenyl)(1,5-dimethyl-3-(1-methyl-1H-pyrazol-5-yl)-4,5-dihydro-1H-pyrazolo[3,4-c]pyridin-6(7H)-yl)methanone], the values for the IC50 at P2X7 [1] and at rat P2X7 were 0.0127 µM and 0.0126 µM, respectively. Also, the Ki at P2X7 [2] is 0.02 µM. Besides, at P2X7 [3], the “PBMC 10 μM (% control)” value was 5.8 % control.
`CCOC(=O)C1c2ncn(-c3cnccn3)c2CCN1C(=O)c1cccc(Cl)c1Cl` (stereo not drawn) [Example 29, Ethyl 5-[(2,3-dichlorophenyl)carbonyl]-1-pyrazin-2-yl-4,5,6,7-tetrahydro-1H-imidazo[4,5-c]pyridine-4-carboxylate]: the IC50 on P2X7 [1] amounted to 0.0798 µM; at rat P2X7, 2.07 µM. In addition, on P2X7 [2], the Ki worked out at 0.038 µM. Also, the “PBMC 1 μM (% control)” value on P2X7 [3] is given as 34.7 % control.
`O=C(c1cccc(C(F)(F)F)c1Cl)N1CCc2c(-c3ncccn3)n[nH]c2C1` [Example 98, 6-{[2-Chloro-3-(trifluoromethyl)phenyl]carbonyl}-3-pyrimidin-2-yl-4,5,6,7-tetrahydro-2H-pyrazolo[3,4-c]pyridine]: the values for the half-maximal inhibitory concentration (IC50) at P2X7 [1] and on rat P2X7 were 0.0066 µM and 0.548 µM, respectively. Moreover, at P2X7 [2], the inhibition constant Ki stood at 0.0141 µM. Besides, the “PBMC 10 μM (% control)” value on P2X7 [3] was 32.5 % control.
Take `O=C(c1cccc(C(F)(F)F)c1Cl)N1CCc2c(-c3cnccn3)n[nH]c2C1` [Example 97, 6-{[2-Chloro-3-(trifluoromethyl)phenyl]carbonyl}-3-pyrazin-2-yl-4,5,6,7-tetrahydro-2H-pyrazolo[3,4-c]pyridine]: the IC50 was 0.0045 µM at P2X7 [1] and 2.29 µM at rat P2X7. The same molecule came in with a Ki on P2X7 [2] of 0.02 µM. Further, the “PBMC 10 μM (% control)” value on P2X7 [3] is given as 12.7 % control.
`O=C(c1cccc(C(F)(F)F)c1F)N1CCc2c(nnn2-c2cnccn2)C1` [Example 69, 5-{[2-Fluoro-3-(trifluoromethyl)phenyl]carbonyl}-1-pyrazin-2-yl-4,5,6,7-tetrahydro-1H-[1,2,3]triazolo[4,5-c]pyridine]: the IC50 at P2X7 [1] turned out to be 0.106 µM; at rat P2X7, 1.46 µM. The molecule further displayed a Ki at P2X7 [2] of 0.0141 µM. In addition, the “PBMC 10 μM (% control)” value on P2X7 [3] is given as 6.8 % control.
In the same order, the values of `CC1c2nnn(-c3ncccc3F)c2C=CN1C(=O)c1cccc(C(F)(F)F)c1Cl` (stereo not drawn) [Example 82, 5-{[2-Chloro-3-(trifluoromethyl)phenyl]carbonyl}-1-(3-fluoropyridin-2-yl)-4-methyl-4,5-dihydro-1H-[1,2,3]triazolo[4,5-c]pyridine] are 0.0173 µM, 0.154 µM, 0.0575 µM and 7.9 % control.
In the same order, the values of `O=C(c1cccc(C(F)(F)F)c1Cl)N1CCc2c(-c3cncc(F)c3)n[nH]c2C1` [Example 95, 6-{[2-Chloro-3-(trifluoromethyl)phenyl]carbonyl}-3-(5-fluoropyridin-3-yl)-4,5,6,7-tetrahydro-2H-pyrazolo[3,4-c]pyridine] are 0.204 µM, greater than 10 µM, 0.316 µM and 14.4 % control.
In the same order, the values of `CC1Cc2c(nnn2-c2ccccn2)CN1C(=O)c1ccc(F)c(Cl)c1Cl` (stereo not drawn) [Example 121, 5-[(2,3-Dichloro-4-fluorophenyl)carbonyl]-6-methyl-1-pyridin-2-yl-4,5,6,7-tetrahydro-1H-[1,2,3]triazolo[4,5-c]pyridine] are 0.0032 µM, 0.0065 µM, 0.0112 µM and −0.2 % control.
As to `O=C(c1cccc(Cl)c1Cl)N1CCc2c(ncn2-c2ccccn2)C1` [Example 4, (2,3-Dichlorophenyl)(1-(pyridin-2-yl)-6,7-dihydro-1H-imidazo[4,5-c]pyridin-5(4H)-yl)methanone], the IC50 on P2X7 [1] worked out at 0.0465 µM; at rat P2X7, 2.57 µM. Also, on P2X7 [2], affinity was put at a Ki of 0.0251 µM. Moreover, the “PBMC 10 μM (% control)” value at P2X7 [3] is given as −3.7 % control.
Regarding `CC1c2nnn(-c3ccc(F)cc3)c2C=CN1C(=O)c1cccc(C(F)(F)F)c1Cl` (stereo not drawn) [Example 81, 5-{[2-Chloro-3-(trifluoromethyl)phenyl]carbonyl}-1-(4-fluorophenyl)-4-methyl-4,5-dihydro-1H-[1,2,3]triazolo[4,5-c]pyridine], the IC50 at P2X7 [1] is 0.0735 µM; at rat P2X7, 0.108 µM. This molecule also displayed a Ki on P2X7 [2] of 0.0631 µM. In addition, the “PBMC 10 μM (% control)” value on P2X7 [3] was 5.9 % control.
In the case of `Cc1c(C(=O)N2CCc3c(nnn3-c3cnccn3)C2C)cccc1C(F)(F)F` (stereo not drawn) [Example 278, (4-methyl-1-(pyrazin-2-yl)-6,7-dihydro-1H-[1,2,3]triazolo[4,5-c]pyridin-5(4H)-yl)(2-methyl-3-(trifluoromethyl)phenyl)methanone], the half-inhibitory concentration (IC50) on P2X7 [1] was found to be 0.0072 µM; on rat P2X7, 0.0923 µM. Also, the Ki on P2X7 [2] came to 0.0126 µM. Moreover, the “PBMC 10 μM (% control)” value at P2X7 [3] is recorded as −19.5 % control.
As to `O=C(c1cccc(C(F)(F)F)c1Cl)N1CCc2c(-c3cccnc3)n[nH]c2C1` [Example 96, 6-{[2-Chloro-3-(trifluoromethyl)phenyl]carbonyl}-3-pyridin-3-yl-4,5,6,7-tetrahydro-2H-pyrazolo[3,4-c]pyridine], the IC50 at P2X7 [1] is 0.0025 µM; on rat P2X7, 0.179 µM. Moreover, the Ki on P2X7 [2] was determined as 0.0148 µM. The “PBMC 10 μM (% control)” value at P2X7 [3] was 3.6 % control.
For the molecule `O=C(c1cccc(C(F)(F)F)c1F)N1CCc2c(nnn2-c2ccccn2)C1` [Example 123, (2-Fluoro-3-(trifluoromethyl)phenyl)(1-(pyridin-2-yl)-6,7-dihydro-1H-[1,2,3]triazolo[4,5-c]pyridin-5(4H)-yl)methanone], the IC50 at P2X7 [1] is 0.0501 µM; at rat P2X7, 1 µM. In addition, the affinity on P2X7 [2], expressed as Ki, was 0.0631 µM. Moreover, the “PBMC 1 μM (% control)” value on P2X7 [3] is reported as 22.0 % control.
Take `CN(C)CC1c2ncn(-c3ccccn3)c2CCN1C(=O)c1cccc(C(F)(F)F)c1Cl` (stereo not drawn) [Example 31, 1-(5-{[2-Chloro-3-(trifluoromethyl)phenyl]carbonyl}-1-pyridin-2-yl-4,5,6,7-tetrahydro-1H-imidazo[4,5-c]pyridin-4-yl)-N,N-dimethylmethanamine]: the IC50 stood at 0.156 µM on P2X7 [1] and 0.107 µM on rat P2X7. The same molecule gave a Ki on P2X7 [2] of 0.316 µM. Further, at P2X7 [3], the “PBMC 1 μM (% control)” value is on record as 50.8 % control.
Consider `CCOC(=O)C1c2ncn(-c3ccccc3)c2CCN1C(=O)c1cccc(C(F)(F)F)c1Cl` (stereo not drawn) [Example 26, Ethyl 5-(2-chloro-3-(trifluoromethyl)benzoyl)-1-phenyl-4,5,6,7-tetrahydro-1H-imidazo[4,5-c]pyridine-4-carboxylate], for which the values for the IC50 at P2X7 [1] and on rat P2X7 were 0.0098 µM and 0.071 µM, respectively. The same molecule showed a Ki on P2X7 [2] of 0.0851 µM. In addition, the “PBMC 1 μM (% control)” value at P2X7 [3] worked out at 14.0 % control.
Regarding `O=C(c1cccc(C(F)(F)F)c1Cl)N1CCc2c(nnn2-c2ccn[nH]2)C1` [Example 68, 5-{[2-Chloro-3-(trifluoromethyl)phenyl]carbonyl}-1-(1H-pyrazol-5-yl)-4,5,6,7-tetrahydro-1H-[1,2,3]triazolo[4,5-c]pyridine], the figures for the IC50 on P2X7 [1] and on rat P2X7 were 0.0169 µM and 0.184 µM, respectively. This molecule came in with a Ki at P2X7 [2] of 0.0182 µM. The “PBMC 10 μM (% control)” value on P2X7 [3] came out at 12.9 % control.
Turning to `O=C(c1cccc(C(F)(F)F)c1Cl)N1C=Cc2c(ncn2-c2cnccn2)C1` [Example 54, 5-{[2-Chloro-3-(trifluoromethyl)phenyl]carbonyl}-1-pyrazin-2-yl-4,5-dihydro-1H-imidazo[4,5-c]pyridine], the figures for the IC50 on P2X7 [1] and at rat P2X7 were 0.198 µM and 4.11 µM, respectively. This molecule displayed a Ki at P2X7 [2] of 0.0437 µM. Also, the “PBMC 1 μM (% control)” value on P2X7 [3] was 8.6 % control.
As for `O=C(c1cccc(Cl)c1Cl)N1CCc2c(nnn2-c2ccccc2)C1` [Example 62, 5-[(2,3-Dichlorophenyl)carbonyl]-1-phenyl-4,5,6,7-tetrahydro-1H-[1,2,3]triazolo[4,5-c]pyridine], the IC50 on P2X7 [1] is 0.0762 µM; at rat P2X7 it was 4.28 µM. This molecule also showed a Ki at P2X7 [2] of 0.0437 µM. The “PBMC 1 μM (% control)” value at P2X7 [3] is 5.2 % control.
As to `Cn1nc2c(c1-c1cncnc1)CCN(C(=O)c1cccc(C(F)(F)F)c1Cl)C2` [Example 113, 6-{[2-Chloro-3-(trifluoromethyl)phenyl]carbonyl}-2-methyl-3-pyrimidin-5-yl-4,5,6,7-tetrahydro-2H-pyrazolo[3,4-c]pyridine], the IC50 was 0.855 µM on P2X7 [1] and greater than 10 µM on rat P2X7. The same molecule returned a Ki at P2X7 [2] of 0.398 µM. In addition, the “PBMC 10 μM (% control)” value on P2X7 [3] was 42.6 % control.
